Results taken from patent US6677362B1, “Solid pharmaceutical dispersions” (Warner-Lambert Company, priority 1991, dated 2004).

What was measured:
[1] = in vivo bioavailability studies involving animal models; conditions: administered in its original crystalline form
[2] = solubility of the drug in water / aqueous media; format: physicochemical

bioavailability [1]: poor bioavailability
change of solubility with pH ([2]; as the pH of the aqueous media increases): slightly increases
solubility in water ([2]; water): practically insoluble
Compound: Cc1c(C)c2c(c(C)c1O)CCC(C)(COc1ccc(CC3SC(=O)NC3=O)cc1)O2 (single isomer, unassigned; (+)) [Romglizone, (+)-5-[4-(6-hydroxy-2,5,7,8-tetramethylchroman-2-ylmethoxy)-benzyl]-2,4-thiazolidinedione]
